Data taken from patent US6541002B1, “Compositions and methods for providing a protein to a virion” (Thomas Jefferson University, priority 1998, dated 2003).
No end group written: not given here.

What follows are substances tested against HIV-1 Vpr (Human immunodeficiency virus type 1 group M subtype B, UniProt P12520). Conditions: heptapeptide fused to Gal4AD, co-expressed with Vpr-Gal4 DNA-binding domain chimera.
Excerpt: DNA fragments encoding the variable heptapeptide region of the coat protein of individual phage isoforms selected from the library described herein were amplified using PCR from purified phage DNA. Amplified peptide-encoding DNA was cloned in frame between the EcoRI and BglII restriction endonuclease sites of pGADGH for use in yeast two-hybrid system experiments.
The yeast reporter strain, HF7c, which comprises two Gal4-inducible reporter genes, namely HIS3 and LacZ, has been described (BouHamdan et al., 1996, J. Virol. 70:697-704). HF7c cells were transformed with two plasmids, pGB-UDG and pGA-Vpr, using known methods to yield double transformant HF7c cells. […] Cells obtained from these plates were used in a liquid culture assay with yeast reporter strain SFY526 to detect beta-galactosidase activity, as described (BouHamdan et al., 1996, J. Virol. 70:697-704; Bartel et al., 1993, Biotech. 14:920-924). […] was used as the substrate in the assay, and each assay was performed in triplicate.
Intracellular interaction of ten of the heptapeptide regions listed in Table 2 with HIV-1 Vpr was further tested using the yeast two-hybrid system.

Substance	ability of double transformant HF7c cells to grow on histidine-deficient medium
SWWSFTP [Pep#1]	able to grow on histidine-deficient medium
WHDFPLV [Pep#3]	better able to grow on histidine-deficient medium than the other double transformants tested
GHTWWTF [Pep#7]	better able to grow on histidine-deficient medium than the other double transformants tested
TTWWWQF [Pep#4]	better able to grow on histidine-deficient medium than those which expressed chimeric proteins having an amino acid sequence identified in Table 2 as Pep#1 (SEQ ID NO: 16), Pep#8 (SEQ ID NO: 17), or Pep#10 (SEQ ID NO: 18)
SAPWWTF [Pep#5]	better able to grow on histidine-deficient medium than those which expressed chimeric proteins having an amino acid sequence identified in Table 2 as Pep#1 (SEQ ID NO: 16), Pep#8 (SEQ ID NO: 17), or Pep#10 (SEQ ID NO: 18)
WHSFPDS [Pep#10]	able to grow on histidine-deficient medium
KPKWAIV [Pep#2]	unable to grow on histidine-deficient medium
WHSFPPP [Pep#8]	able to grow on histidine-deficient medium
KPMWWHF [Pep#9]	better able to grow on histidine-deficient medium than the other double transformants tested
LPPWAAF [Pep#6]	better able to grow on histidine-deficient medium than the other double transformants tested
